Values after ≈ are worked out from the molar mass of the structure shown. Values joined by “and” are separate entries in the source; they are usually repeats but may differ in a detail not shown here. Identical values can stand only once.

Some test systems named below: Staphylococcus aureus; Escherichia coli; Candida albicans; Bacillus subtilis; Pseudomonas aeruginosa; Escherichia coli UB1005.
Holding throughout (experiment): ≥ marks a high value that may be exact or a test limit, other limits are often not marked, values filed in µg/mL are converted to µM
Assay [1] relates to Staphylococcus aureus ATCC 29213.
Assay [2] has as its system Escherichia coli ATCC 25922.
For assay [3], the system named is Pseudomonas aeruginosa ATCC 27853.
Assay [4] has as its system Acinetobacter baumannii ATCC 19606.
The subject of assay [5] is Klebsiella pneumoniae ATCC 13883.
The subject of assay [6] is Staphylococcus aureus ATCC 25923.
The subject of assay [7] is Candida albicans ATCC 2002.
Assay [8] has as its system Pseudomonas aeruginosa PAO1.

Usually MIC stands for the least concentration at which growth counts as inhibited. Read a low MIC as inhibition by little substance. Turning to `CC[C@H](C)[C@@H]1NC(=O)[C@H](CO)NC(=O)[C@H](C(C)C)NC(=O)[C@H]([C@@H](C)O)NC(=O)[C@H](Cc2c[nH]c3ccccc23)NC(=O)[C@@H](NC(=O)CNC(=O)[C@H](CCCCN)NC(=O)[C@H](CCCCN)NC(=O)[C@H](C)NC(=O)[C@H](C)N)CSSC[C@@H](C(=O)N[C@@H](Cc2ccccc2)C(N)=O)NC(=O)[C@@H]2CCCN2C(=O)[C@H](CCCCN)NC(=O)[C@@H]2CCCN2C(=O)[C@@H]2CCCN2C1=O` [AAKKGCWTVSIPPKPCF], the minimum inhibitory concentration (MIC) in assay [1] came out at 16 µM (≈ 29.3 µg/mL); in assay [2] it was 22.6 µM (≈ 41.4 µg/mL); in [3], 32 µM (≈ 58.6 µg/mL); in assay [4], 16 µM (≈ 29.3 µg/mL); in [5], 8 µM (≈ 14.6 µg/mL).
Turning to `CC[C@H](C)[C@@H]1NC(=O)[C@H](CCCCN)NC(=O)[C@@H](NC(=O)[C@H](CCCCN)NC(=O)[C@H](CC(C)C)NC(=O)[C@H](CC(N)=O)NC(=O)[C@H](CC(=O)O)NC(=O)[C@H](CC(C)C)NC(=O)[C@H](CC(C)C)NC(=O)[C@@H](NC(=O)[C@@H](NC(=O)[C@H](C)NC(=O)[C@@H](NC(=O)[C@H](CC(N)=O)NC(=O)[C@H](CCCCN)NC(=O)[C@H](C)NC(=O)[C@H](C)NC(=O)[C@H](CC(N)=O)NC(=O)[C@H](CCCCN)NC(=O)[C@H](C)NC(=O)[C@@H](NC(=O)[C@H](CC(=O)O)NC(=O)[C@H](CCSC)NC(=O)[C@H](Cc2ccccc2)NC(=O)CN)[C@@H](C)O)C(C)C)C(C)C)[C@@H](C)O)CSSC[C@@H](C(=O)O)NC(=O)[C@H](C)NC(=O)[C@H](CCCCN)NC(=O)[C@H]([C@@H](C)O)NC1=O` [GFMDTAKNAAKNVAVTLLDNLKCKITKAC], the minimum inhibitory concentration (MIC) came out at 0.681 µM (≈ 2.1 µg/mL) against Staphylococcus aureus, 1.36 µM (≈ 4.2 µg/mL) against Escherichia coli, 0.341 µM (≈ 1.05 µg/mL) with Candida albicans and 2.72 µM (≈ 8.39 µg/mL) in the assay with Bacillus subtilis.
The like results for `CC[C@H](C)[C@H](NC(=O)[C@H](CO)NC(=O)CNC(=O)[C@H](CCCN=C(N)N)NC(=O)[C@@H](NC(=O)[C@H](CO)NC(=O)[C@@H](NC(=O)CNC(=O)[C@H](CO)NC(=O)[C@H](CC(C)C)NC(=O)[C@H](CC(C)C)NC(=O)CN)[C@@H](C)O)C(C)C)C(=O)O` [GLLSGTSVRGSI] were, in that order, 15.7 µM (≈ 18 µg/mL), 31.4 µM (≈ 36 µg/mL), 7.85 µM (≈ 9 µg/mL) and 15.7 µM (≈ 18 µg/mL).
Turning to `CC[C@H](C)[C@H](NC(=O)[C@H](CC(C)C)NC(=O)[C@@H]1CCCN1C(=O)[C@H](CS)NC(=O)[C@H](CC(C)C)NC(=O)CNC(=O)[C@@H]1CCCN1C(=O)[C@H](CCCCN)NC(=O)[C@H](CCCCN)NC(=O)[C@@H]1CCCN1C(=O)[C@H](CCCN=C(N)N)NC(=O)[C@H](CC(=O)O)NC(=O)[C@@H](N)CCCCN)C(=O)N[C@@H](Cc1c[nH]c2ccccc12)C(=O)N[C@@H](Cc1c[nH]c2ccccc12)C(=O)N[C@@H](CC(C)C)C(=O)N[C@H](C(=O)N[C@H](C(=O)N[C@@H](CCCCN)C(=O)N[C@H](C(=O)NCC(N)=O)C(C)C)[C@@H](C)CC)[C@@H](C)CC` [KDRPKKPGLCPLIWWLIIKVG], the minimal inhibitory concentration (MIC) in assay [2] came out at 6.35 µM (≈ 15.6 µg/mL); in assay [3], 25.4 µM (≈ 62.5 µg/mL); with Staphylococcus aureus it was 50.8 µM (≈ 125 µg/mL); in the assay on Pseudomonas aeruginosa, 25.4 µM (≈ 62.5 µg/mL); in the assay on Escherichia coli, 12.7 µM (≈ 31.2 µg/mL); against Candida albicans, 102 µM (≈ 250 µg/mL). In addition, in assay [6], the minimum inhibitory concentration (MIC) amounted to 50.8 µM (≈ 125 µg/mL).
Turning to `CC[C@H](C)[C@H](NC(=O)[C@@H](NC(=O)[C@@H](NC(=O)[C@@H]1CCCN1C(=O)[C@H](Cc1c[nH]c2ccccc12)NC(=O)[C@H](Cc1ccccc1)NC(=O)[C@H](CCCN=C(N)N)NC(=O)[C@H](CCCCN)NC(=O)[C@@H](NC(=O)[C@@H](N)CCCN=C(N)N)[C@@H](C)CC)C(C)C)C(C)C)C(=O)N[C@@H](CCCN=C(N)N)C(=O)N[C@H](C(=O)N[C@H](C(=O)N[C@H](C(=O)N[C@@H](C)C(=O)NCC(=O)N[C@@H](Cc1ccc(O)cc1)C(=O)O)C(C)C)C(C)C)[C@@H](C)O` [RIKRFWPVVIRTVVAGY], the MIC in assay [7] is ≥ 36.4 µM.
Regarding `CC[C@H](C)[C@H](NC(=O)[C@@H](NC(=O)[C@@H](NC(=O)[C@@H]1CCCN1C(=O)[C@H](Cc1c[nH]c2ccccc12)NC(=O)[C@H](Cc1ccccc1)NC(=O)[C@H](CCCN=C(N)N)NC(=O)[C@H](CCCCN)NC(=O)[C@@H](NC(=O)[C@@H](N)CCCN=C(N)N)[C@@H](C)CC)C(C)C)C(C)C)C(=O)N[C@@H](CCCN=C(N)N)C(=O)N[C@H](C(=O)N[C@H](C(=O)N[C@H](C(=O)N[C@@H](C)C(=O)NCC(=O)O)C(C)C)C(C)C)[C@@H](C)O` [RIKRFWPVVIRTVVAG], the minimum inhibitory concentration (MIC) in assay [7] was ≥ 79.1 µM.
Regarding `CC(C)C[C@H](NC(=O)[C@H](CCCN=C(N)N)NC(=O)[C@H](CCCN=C(N)N)NC(=O)[C@H](C)NC(=O)[C@H](Cc1c[nH]c2ccccc12)NC(=O)CNC(=O)[C@H](CCCN=C(N)N)NC(=O)[C@@H](N)CCCN=C(N)N)C(=O)N[C@@H](C)C(=O)N[C@@H](Cc1ccccc1)C(=O)N[C@@H](C)C(=O)N[C@@H](Cc1ccccc1)C(=O)NCC(=O)N[C@@H](CCCN=C(N)N)C(=O)N[C@@H](CCCN=C(N)N)C(N)=O` [RRGWARRLAFAFGRR], the minimum inhibitory concentration (MIC) in assay [2] is 12.5 µM and 30 µM; in [4], 13.8 µM and 22 µM; in [5], 30 µM (≈ 56.3 µg/mL); in [6], > 30 µM.
Take `CC[C@H](C)[C@H](NC(=O)[C@H](CCCCN)NC(=O)[C@H](C)NC(=O)[C@H](C)NC(=O)[C@@H](NC(=O)[C@H](Cc1ccccc1)NC(=O)CNC(=O)[C@H](CC(C)C)NC(=O)CNC(=O)[C@@H](NC(=O)[C@H](CCCCN)NC(=O)CNC(=O)[C@H](CC(C)C)NC(=O)[C@H](CC(N)=O)NC(=O)[C@H](CCCCN)NC(=O)[C@H](CC(C)C)NC(=O)[C@@H](NC(=O)[C@H](CO)NC(=O)[C@H](CC(C)C)NC(=O)[C@H](CCSC)NC(=O)[C@@H](N)CO)C(C)C)C(C)C)C(C)C)C(=O)N[C@@H](C)C(=O)N[C@@H](CCCCN)C(=O)N[C@@H](CCC(N)=O)C(=O)N[C@@H](C)C(=O)O` [SMLSVLKNLGKVGLGFVAAKIAKQA]: the values for the minimal inhibitory concentration (MIC) against Staphylococcus aureus, against Escherichia coli and against Candida albicans were 100 µM (≈ 254 µg/mL), 20 µM (≈ 50.9 µg/mL) and 100 µM (≈ 254 µg/mL), respectively.
As for `CC[C@H](C)[C@H](NC(=O)[C@H](CCCN=C(N)N)NC(=O)[C@H](CCCCN)NC(=O)[C@@H]1CCCN1C(=O)[C@@H]1CCCN1C(=O)[C@H](CCCN=C(N)N)NC(=O)[C@@H]1CCCN1C(=O)[C@H](CCCN=C(N)N)NC(=O)[C@@H]1CCCN1C(=O)[C@H](CC(C)C)NC(=O)[C@H](Cc1ccc(O)cc1)NC(=O)[C@@H]1CCCN1C(=O)[C@@H]1CCCN1C(=O)[C@H](CCCCN)NC(=O)[C@H](CC(=O)O)NC(=O)[C@@H](N)C(C)C)C(=O)N[C@@H](Cc1ccc(O)cc1)C(=O)N[C@@H](CC(N)=O)C(=O)N[C@@H](CCCN=C(N)N)C(N)=O` [VDKPPYLPRPRPPKRIYNR], the MIC against Escherichia coli UB1005 worked out at 0.254 µM (≈ 0.6 µg/mL); in [6] it was 27.1 µM (≈ 64 µg/mL); in [8] it was 27.1 µM (≈ 64 µg/mL).
For `CC(C)C[C@H](NC(=O)[C@H](Cc1ccc(O)cc1)NC(=O)[C@@H]1CCCN1C(=O)[C@@H]1CCCN1C(=O)[C@H](CCCCN)NC(=O)[C@H](CC(=O)O)NC(=O)[C@@H](N)C(C)C)C(=O)N1CCC[C@H]1C(=O)N[C@@H](CCCN=C(N)N)C(=O)N1CCC[C@H]1C(=O)N[C@@H](CCCN=C(N)N)C(=O)N1CCC[C@H]1C(=O)N1CCC[C@H]1C(=O)N[C@@H](CCCN=C(N)N)C(=O)N[C@@H](CCCN=C(N)N)C(=O)N[C@@H](CCCCN)C(=O)N[C@@H](Cc1ccc(O)cc1)C(=O)N[C@@H](CC(N)=O)C(=O)N[C@@H](CCCN=C(N)N)C(N)=O` [VDKPPYLPRPRPPRRKYNR], the minimal inhibitory concentration (MIC) against Escherichia coli UB1005 is 1.04 µM (≈ 2.5 µg/mL); in [6] it was 13.3 µM (≈ 32 µg/mL); in assay [8], 26.6 µM (≈ 64 µg/mL).

The values above are taken from DBAASP.
